{"source": "patent US11572590B2", "about": "“Methods for evaluating tumor cell spheroids using 3D microfluidic cell culture device” (Dana-Farber Cancer Institute, Inc., priority 2017, dated 2023)", "experiment_in_all_cases": "SelectScreen Kinase Profiling, single point inhibition and IC50 for off-target kinases", "type_in_all_cases": "biochemical", "key": {"off-target kinases [1]": {"target": "off-target kinases (Homo sapiens, UniProt Q06187)", "sequence (Q06187 whole entry)": "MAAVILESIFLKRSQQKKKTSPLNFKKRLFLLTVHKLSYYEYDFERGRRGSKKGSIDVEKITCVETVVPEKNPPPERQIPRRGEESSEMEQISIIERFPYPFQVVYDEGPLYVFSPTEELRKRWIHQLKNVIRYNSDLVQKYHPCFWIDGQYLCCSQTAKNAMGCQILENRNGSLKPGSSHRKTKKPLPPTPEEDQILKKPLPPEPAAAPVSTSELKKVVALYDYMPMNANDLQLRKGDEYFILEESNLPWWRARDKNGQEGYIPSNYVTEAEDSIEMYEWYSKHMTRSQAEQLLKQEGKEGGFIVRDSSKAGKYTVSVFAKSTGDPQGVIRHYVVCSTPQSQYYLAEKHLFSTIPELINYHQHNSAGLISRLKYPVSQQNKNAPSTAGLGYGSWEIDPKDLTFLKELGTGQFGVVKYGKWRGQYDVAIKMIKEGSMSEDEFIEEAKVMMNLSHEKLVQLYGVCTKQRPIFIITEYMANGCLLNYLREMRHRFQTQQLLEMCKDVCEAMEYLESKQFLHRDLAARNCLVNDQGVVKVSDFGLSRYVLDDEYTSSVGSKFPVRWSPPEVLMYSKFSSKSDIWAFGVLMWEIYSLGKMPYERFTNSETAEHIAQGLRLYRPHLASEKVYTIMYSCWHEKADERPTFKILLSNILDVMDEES", "conditions": "BTK, ZLYTE, ATP Km app"}, "off-target kinases [2]": {"target": "off-target kinases (Homo sapiens, UniProt Q15349)", "sequence (Q15349 whole entry)": "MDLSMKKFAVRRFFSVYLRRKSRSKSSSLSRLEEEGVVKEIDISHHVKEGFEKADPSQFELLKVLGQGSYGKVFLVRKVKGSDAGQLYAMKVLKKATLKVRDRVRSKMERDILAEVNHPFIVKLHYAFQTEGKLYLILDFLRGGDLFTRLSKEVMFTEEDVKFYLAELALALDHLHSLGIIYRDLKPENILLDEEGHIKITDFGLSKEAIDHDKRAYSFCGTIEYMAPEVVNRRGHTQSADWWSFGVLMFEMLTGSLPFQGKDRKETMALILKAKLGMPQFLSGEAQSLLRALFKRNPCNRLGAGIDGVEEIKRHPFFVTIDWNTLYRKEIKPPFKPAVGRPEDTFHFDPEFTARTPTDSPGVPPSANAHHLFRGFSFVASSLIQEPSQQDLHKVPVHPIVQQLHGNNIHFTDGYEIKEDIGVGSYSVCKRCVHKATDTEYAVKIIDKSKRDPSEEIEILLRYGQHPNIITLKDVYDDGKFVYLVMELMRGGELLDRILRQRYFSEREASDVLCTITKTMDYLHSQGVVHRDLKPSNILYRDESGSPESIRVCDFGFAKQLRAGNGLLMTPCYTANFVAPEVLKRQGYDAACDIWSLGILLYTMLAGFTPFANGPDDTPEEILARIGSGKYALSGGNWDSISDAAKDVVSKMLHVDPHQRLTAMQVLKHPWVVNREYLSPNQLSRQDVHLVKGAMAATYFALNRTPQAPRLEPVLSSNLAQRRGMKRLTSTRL", "conditions": "RPS6KA2 (RSK3), ZLYTE, ATP Km app"}, "off-target kinases [3]": {"target": "off-target kinases (Homo sapiens, UniProt P36507)", "conditions": "MAP2K2 (MEK2)"}, "off-target kinases [4]": {"target": "off-target kinases (Homo sapiens, UniProt Q04759)", "conditions": "PRKCQ (PKC theta); Cmpd1 1000 μM; ATP Km app; ZLYTE"}, "off-target kinases [5]": {"target": "off-target kinases (Homo sapiens, UniProt Q00535)", "sequence (Q00535 whole entry)": "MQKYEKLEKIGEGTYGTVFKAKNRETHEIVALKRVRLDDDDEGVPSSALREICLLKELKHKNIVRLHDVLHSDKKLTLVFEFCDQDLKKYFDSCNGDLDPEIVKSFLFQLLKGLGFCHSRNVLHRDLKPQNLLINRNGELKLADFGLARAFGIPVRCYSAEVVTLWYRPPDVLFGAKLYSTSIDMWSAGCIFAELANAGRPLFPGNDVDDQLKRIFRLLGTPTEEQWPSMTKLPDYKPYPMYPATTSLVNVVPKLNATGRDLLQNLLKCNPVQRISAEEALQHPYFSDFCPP"}, "off-target kinases [6]": {"target": "off-target kinases (Homo sapiens, UniProt P07949, V804M)", "conditions": "RET V804M, mutant y, LanthaScreen Binding"}, "off-target kinases [7]": {"target": "off-target kinases (Homo sapiens, UniProt Q5S007, G2019S)", "sequence (Q5S007 whole entry G2019S)": "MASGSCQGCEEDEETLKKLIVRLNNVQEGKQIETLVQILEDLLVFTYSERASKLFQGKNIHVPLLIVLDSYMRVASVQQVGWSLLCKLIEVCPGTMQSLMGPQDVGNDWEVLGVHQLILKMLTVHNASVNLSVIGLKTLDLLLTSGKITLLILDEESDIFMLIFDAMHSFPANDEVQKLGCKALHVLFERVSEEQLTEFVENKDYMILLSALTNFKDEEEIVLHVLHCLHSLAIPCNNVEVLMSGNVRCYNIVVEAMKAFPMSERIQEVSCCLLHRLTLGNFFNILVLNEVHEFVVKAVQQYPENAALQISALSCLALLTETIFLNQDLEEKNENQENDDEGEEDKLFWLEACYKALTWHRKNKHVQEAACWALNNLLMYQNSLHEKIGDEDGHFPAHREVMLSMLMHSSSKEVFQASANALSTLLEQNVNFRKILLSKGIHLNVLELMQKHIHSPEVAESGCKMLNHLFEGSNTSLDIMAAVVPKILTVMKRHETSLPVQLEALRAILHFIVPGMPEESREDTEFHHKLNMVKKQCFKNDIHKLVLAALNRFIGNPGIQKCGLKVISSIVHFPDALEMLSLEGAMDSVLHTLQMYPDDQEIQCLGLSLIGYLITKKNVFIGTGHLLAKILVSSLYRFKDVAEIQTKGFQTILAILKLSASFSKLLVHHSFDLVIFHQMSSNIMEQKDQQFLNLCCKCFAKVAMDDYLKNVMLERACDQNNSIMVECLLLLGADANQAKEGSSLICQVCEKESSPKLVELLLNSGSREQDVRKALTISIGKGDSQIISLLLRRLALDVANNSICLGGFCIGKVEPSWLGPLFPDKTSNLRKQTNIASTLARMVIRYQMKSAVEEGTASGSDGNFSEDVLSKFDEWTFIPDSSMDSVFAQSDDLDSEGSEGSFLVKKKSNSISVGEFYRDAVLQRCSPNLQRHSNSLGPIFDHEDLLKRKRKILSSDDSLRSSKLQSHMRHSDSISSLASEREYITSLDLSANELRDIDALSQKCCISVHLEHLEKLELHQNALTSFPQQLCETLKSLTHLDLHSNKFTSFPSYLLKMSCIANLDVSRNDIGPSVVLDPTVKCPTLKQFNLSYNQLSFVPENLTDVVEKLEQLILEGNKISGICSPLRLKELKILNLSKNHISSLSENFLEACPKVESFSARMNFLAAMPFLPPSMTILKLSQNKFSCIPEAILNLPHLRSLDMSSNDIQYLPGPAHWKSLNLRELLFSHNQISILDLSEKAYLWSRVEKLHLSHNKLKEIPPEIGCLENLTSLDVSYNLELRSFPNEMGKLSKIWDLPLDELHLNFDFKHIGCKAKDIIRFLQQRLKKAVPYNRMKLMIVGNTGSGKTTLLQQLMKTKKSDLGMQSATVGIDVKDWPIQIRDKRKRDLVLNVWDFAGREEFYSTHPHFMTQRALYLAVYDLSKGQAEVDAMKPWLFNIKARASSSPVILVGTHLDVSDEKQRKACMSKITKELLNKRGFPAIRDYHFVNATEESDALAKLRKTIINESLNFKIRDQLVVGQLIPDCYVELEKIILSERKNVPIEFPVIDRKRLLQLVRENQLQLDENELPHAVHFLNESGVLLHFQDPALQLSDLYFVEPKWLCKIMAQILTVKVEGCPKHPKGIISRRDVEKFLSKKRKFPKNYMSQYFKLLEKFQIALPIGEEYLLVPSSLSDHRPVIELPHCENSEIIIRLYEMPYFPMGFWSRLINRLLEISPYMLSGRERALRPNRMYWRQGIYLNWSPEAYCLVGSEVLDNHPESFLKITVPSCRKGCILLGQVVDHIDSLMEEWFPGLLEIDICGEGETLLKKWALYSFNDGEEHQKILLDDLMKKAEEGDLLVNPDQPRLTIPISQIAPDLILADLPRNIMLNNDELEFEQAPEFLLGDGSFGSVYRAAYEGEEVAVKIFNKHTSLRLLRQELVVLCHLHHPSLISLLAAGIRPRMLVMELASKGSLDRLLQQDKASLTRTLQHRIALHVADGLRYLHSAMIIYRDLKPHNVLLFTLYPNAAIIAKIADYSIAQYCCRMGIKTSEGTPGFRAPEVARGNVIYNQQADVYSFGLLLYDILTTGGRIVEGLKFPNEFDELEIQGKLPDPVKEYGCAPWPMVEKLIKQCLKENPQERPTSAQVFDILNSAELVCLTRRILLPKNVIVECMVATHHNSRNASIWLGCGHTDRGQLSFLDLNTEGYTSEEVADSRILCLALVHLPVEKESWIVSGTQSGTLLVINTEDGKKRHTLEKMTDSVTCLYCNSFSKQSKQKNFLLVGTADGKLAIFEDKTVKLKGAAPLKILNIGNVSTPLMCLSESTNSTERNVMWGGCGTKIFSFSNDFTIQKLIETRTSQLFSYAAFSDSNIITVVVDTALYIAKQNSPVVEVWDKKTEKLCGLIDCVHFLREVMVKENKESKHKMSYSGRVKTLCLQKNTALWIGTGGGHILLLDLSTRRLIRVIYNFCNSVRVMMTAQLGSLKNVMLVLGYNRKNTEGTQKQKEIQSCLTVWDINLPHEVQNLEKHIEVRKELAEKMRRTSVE", "conditions": "ATP Km app, Adapta"}, "off-target kinases [8]": {"target": "off-target kinases (Homo sapiens, UniProt P30291)", "sequence (P30291 whole entry)": "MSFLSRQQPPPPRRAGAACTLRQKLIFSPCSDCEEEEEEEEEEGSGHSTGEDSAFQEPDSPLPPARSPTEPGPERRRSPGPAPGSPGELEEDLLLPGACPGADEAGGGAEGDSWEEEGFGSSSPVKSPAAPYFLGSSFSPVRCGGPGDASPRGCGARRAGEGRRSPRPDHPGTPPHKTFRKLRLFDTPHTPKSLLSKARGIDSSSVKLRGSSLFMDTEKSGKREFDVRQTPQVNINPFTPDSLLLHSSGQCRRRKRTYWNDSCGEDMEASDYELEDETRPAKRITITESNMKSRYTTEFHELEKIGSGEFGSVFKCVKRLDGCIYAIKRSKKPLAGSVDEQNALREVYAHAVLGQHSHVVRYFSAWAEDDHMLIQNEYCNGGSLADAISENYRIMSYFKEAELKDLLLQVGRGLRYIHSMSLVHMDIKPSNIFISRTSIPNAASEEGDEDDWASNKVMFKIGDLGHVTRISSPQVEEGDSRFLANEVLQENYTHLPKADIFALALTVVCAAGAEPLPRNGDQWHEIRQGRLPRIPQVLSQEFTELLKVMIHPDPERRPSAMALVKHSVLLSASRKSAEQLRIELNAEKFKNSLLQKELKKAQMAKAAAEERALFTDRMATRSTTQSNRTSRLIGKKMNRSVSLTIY", "conditions": "WEE1, LanthaScreen Binding"}}, "note": "Where two headings read alike, the source gives them in different places."}
{"smiles": "N#Cc1cc(-c2ncnc(Nc3ccc(N4CCN(C5COC5)CC4)cc3)n2)ccc1OC1CCOCC1", "note": "[Compound 1, 5-(4-((4-(4-(oxetan-3-yl)piperazin-1-yl)phenyl)amino)-1,3,5-triazin-2-yl)-2-((tetrahydro-2H-pyran-4-yl)oxy)benzonitrile]", "values": [{"measurement": "inhibition", "setting": "off-target kinases [1]; read-out: % Inhibition 1", "result": 3, "unit": "%"}, {"measurement": "inhibition", "setting": "off-target kinases [1]; read-out: % Inhibition 2", "result": 6, "unit": "%"}, {"measurement": "inhibition", "setting": "off-target kinases [1]; read-out: % Inhibition Avg", "result": 5, "unit": "%"}, {"measurement": "inhibition", "setting": "off-target kinases [2]; read-out: % Inhibition 1", "result": 17, "unit": "%"}, {"measurement": "inhibition", "setting": "off-target kinases [2]; read-out: % Inhibition 2", "result": 13, "unit": "%"}, {"measurement": "inhibition", "setting": "off-target kinases [2]; read-out: % Inhibition Avg", "result": 15, "unit": "%"}, {"measurement": "inhibition", "setting": "off-target kinases [3]; LanthaScreen Binding, read-out: % Inhibition 1", "result": 5, "unit": "%"}, {"measurement": "inhibition", "setting": "off-target kinases [3]; LanthaScreen Binding, read-out: % Inhibition 2", "result": 5, "unit": "%"}, {"measurement": "inhibition", "setting": "off-target kinases [3]; LanthaScreen Binding, read-out: % Inhibition Avg", "result": 5, "unit": "%"}, {"measurement": "inhibition", "setting": "off-target kinases [3]; ZLYTE, ATP 100, read-out: % Inhibition 1", "result": 13, "unit": "%"}, {"measurement": "inhibition", "setting": "off-target kinases [3]; ZLYTE, ATP 100, read-out: % Inhibition 2", "result": 2, "unit": "%"}, {"measurement": "inhibition", "setting": "off-target kinases [3]; ZLYTE, ATP 100, read-out: % Inhibition Avg", "result": 8, "unit": "%"}, {"measurement": "% Inhibition 1", "setting": "off-target kinases [4]", "result": "−6", "unit": "%"}, {"measurement": "% Inhibition 2", "setting": "off-target kinases [4]", "result": "−17", "unit": "%"}, {"measurement": "% Inhibition Avg", "setting": "off-target kinases [4]", "result": "−12", "unit": "%"}, {"measurement": "inhibition", "setting": "off-target kinases [5]; CDK5 (Inactive), LanthaScreen Binding, read-out: % Inhibition 1", "result": 1, "unit": "%"}, {"measurement": "inhibition", "setting": "off-target kinases [5]; CDK5 (Inactive), LanthaScreen Binding, read-out: % Inhibition 2", "result": -2, "unit": "%"}, {"measurement": "inhibition", "setting": "off-target kinases [5]; CDK5/p25, ZLYTE, ATP Km app, read-out: % Inhibition 1", "result": 3, "unit": "%"}, {"measurement": "inhibition", "setting": "off-target kinases [5]; CDK5/p25, ZLYTE, ATP Km app, read-out: % Inhibition 2", "result": 1, "unit": "%"}, {"measurement": "inhibition", "setting": "off-target kinases [5]; CDK5/p25, ZLYTE, ATP Km app, read-out: % Inhibition Avg", "result": 2, "unit": "%"}, {"measurement": "inhibition", "setting": "off-target kinases [5]; CDK5/p35, ZLYTE, ATP Km app, read-out: % Inhibition 1", "result": 7, "unit": "%"}, {"measurement": "inhibition", "setting": "off-target kinases [5]; CDK5/p35, ZLYTE, ATP Km app, read-out: % Inhibition 2", "result": 2, "unit": "%"}, {"measurement": "inhibition", "setting": "off-target kinases [5]; CDK5/p35, ZLYTE, ATP Km app, read-out: % Inhibition Avg", "result": 5, "unit": "%"}, {"measurement": "inhibition", "setting": "off-target kinases [5]; read-out: % Inhibition Avg", "result": -1, "unit": "%"}, {"measurement": "inhibition", "setting": "off-target kinases [6]; read-out: % Inhibition 1", "result": 35, "unit": "%"}, {"measurement": "inhibition", "setting": "off-target kinases [6]; read-out: % Inhibition 2", "result": 31, "unit": "%"}, {"measurement": "inhibition", "setting": "off-target kinases [6]; read-out: % Inhibition Avg", "result": 33, "unit": "%"}, {"measurement": "inhibition", "setting": "off-target kinases [7]; LRRK2 G2019S FL, read-out: % Inhibition 1", "result": 100, "unit": "%"}, {"measurement": "inhibition", "setting": "off-target kinases [7]; LRRK2 G2019S FL, read-out: % Inhibition 2", "result": 99, "unit": "%"}, {"measurement": "inhibition", "setting": "off-target kinases [7]; LRRK2 G2019S FL, read-out: % Inhibition Avg", "result": 99, "unit": "%"}, {"measurement": "inhibition", "setting": "off-target kinases [7]; LRRK2 G2019S, read-out: % Inhibition 1", "result": 99, "unit": "%"}, {"measurement": "inhibition", "setting": "off-target kinases [7]; LRRK2 G2019S, read-out: % Inhibition 2", "result": 100, "unit": "%"}, {"measurement": "inhibition", "setting": "off-target kinases [7]; LRRK2 G2019S, read-out: % Inhibition Avg", "result": 100, "unit": "%"}, {"measurement": "inhibition", "setting": "off-target kinases [8]; read-out: % Inhibition 1", "result": 28, "unit": "%"}, {"measurement": "inhibition", "setting": "off-target kinases [8]; read-out: % Inhibition 2", "result": 36, "unit": "%"}, {"measurement": "inhibition", "setting": "off-target kinases [8]; read-out: % Inhibition Avg", "result": 32, "unit": "%"}]}
